{"source": "patent US10206937B2", "about": "“Boronic acid derivatives and therapeutic uses thereof” (Qpex Biopharma, Inc., priority 2014, dated 2019)", "test_system": "strains of Enterobacteriaceae producing various carbapenemases (class A, D and B; 169 strains)", "assay": "Meropenem or tebipenem potentiation by Compounds 97 or 62 (MIC)", "assay_type": "cell-based", "procedure": "The largest panel of clinical isolates expressing class A, D and B carbapenemases alone or in combination with other beta-lactamases (169 strains) was used to evaluate carbapenem potentiation activity of Compounds 97 and 62. MIC for meropenem and tebipenem of these strains were determined either alone or in the presence of Compounds 97 or 62, respectively, at a fixed concentration of 8 μg/ml in the growth media.", "data": [{"smiles": "C[C@@H](O)[C@H]1C(=O)N2C(C(=O)O)=C(SC3CN(C4=NCCS4)C3)[C@H](C)[C@H]12", "note": "[T]", "values": [{"measurement": "Tebipenem MIC alone (T)", "setting": "CF1022 Citrobacter freundii SHV-12(2be), TEM-OSBL(2b), IMP-8", "result": "Y (MIC of 1 μg/mL to 10 μg/mL)"}, {"measurement": "Tebipenem MIC alone (T)", "setting": "CF1023 Citrobacter freundii SHV-12(2be), TEM-OSBL(2b), CTX-M-3, CMY-34, NDM-1", "result": "Z (MIC of greater than 10 μg/mL)"}, {"measurement": "Tebipenem MIC alone (T)", "setting": "EC1061 Escherichia coli NDM-1, CMY-6", "result": "Z (MIC of greater than 10 μg/mL)"}, {"measurement": "Tebipenem MIC alone (T)", "setting": "EC1069 Escherichia coli CTX-M-27, NDM-1", "result": "Z (MIC of greater than 10 μg/mL)"}, {"measurement": "Tebipenem MIC alone (T)", "setting": "EC1070 Escherichia coli TEM-OSBL(2b), CMY-42, NDM-5", "result": "Z (MIC of greater than 10 μg/mL)"}, {"measurement": "Tebipenem MIC alone (T)", "setting": "EC1072 Escherichia coli CTX-M-3, NDM-1", "result": "Z (MIC of greater than 10 μg/mL)"}, {"measurement": "Tebipenem MIC alone (T)", "setting": "ECL1045 Enterobacter cloacae VIM-1", "result": "Y (MIC of 1 μg/mL to 10 μg/mL)"}, {"measurement": "Tebipenem MIC alone (T)", "setting": "ECL1055 Enterobacter cloacae KPC-3, TEM", "result": "Z (MIC of greater than 10 μg/mL)"}, {"measurement": "Tebipenem MIC alone (T)", "setting": "ECL1057 Enterobacter cloacae NDM-1, TEM-1, CTX-M-15", "result": "Z (MIC of greater than 10 μg/mL)"}, {"measurement": "Tebipenem MIC alone (T)", "setting": "ECL1084 Enterobacter cloacae CTX-M-15, ACT-16, NDM-1", "result": "Z (MIC of greater than 10 μg/mL)"}, {"measurement": "Tebipenem MIC alone (T)", "setting": "ECL1085 Enterobacter cloacae SHV-31(2be), TEM-1(2b), CTX-M-15, NDM-1", "result": "Z (MIC of greater than 10 μg/mL)"}, {"measurement": "Tebipenem MIC alone (T)", "setting": "ECL1087 Enterobacter cloacae VIM-1", "result": "Y (MIC of 1 μg/mL to 10 μg/mL)"}, {"measurement": "Tebipenem MIC alone (T)", "setting": "ECL1090 Enterobacter cloacae TEM-1(2b), CTX-M-22, ACT-type, IMP-8", "result": "Y (MIC of 1 μg/mL to 10 μg/mL)"}, {"measurement": "Tebipenem MIC alone (T)", "setting": "ECL1092 Enterobacter cloacae TEM-OSBL(2b), ACT-32, VIM-1", "result": "Y (MIC of 1 μg/mL to 10 μg/mL)"}, {"measurement": "Tebipenem MIC alone (T)", "setting": "ECL1093 Enterobacter cloacae TEM-OSBL(2b), ACT-32, VIM-1", "result": "Y (MIC of 1 μg/mL to 10 μg/mL)"}, {"measurement": "Tebipenem MIC alone (T)", "setting": "ECL1094 Enterobacter cloacae VIM-1", "result": "Z (MIC of greater than 10 μg/mL)"}, {"measurement": "Tebipenem MIC alone (T)", "setting": "ECL1095 Enterobacter cloacae SHV-12(2be), TEM-OSBL(2b), CMY-4, ACT-16, VIM-4, OXA-48(c)", "result": "Z (MIC of greater than 10 μg/mL)"}, {"measurement": "Tebipenem MIC alone (T)", "setting": "ECL1096 Enterobacter cloacae CMY-4, VIM-4, OXA-48(c)", "result": "Z (MIC of greater than 10 μg/mL)"}, {"measurement": "Tebipenem MIC alone (T)", "setting": "ECL1097 Enterobacter cloacae SHV-31(2be), TEM-OSBL(2b), CTX-M-15, ACT-31, NDM-1", "result": "Z (MIC of greater than 10 μg/mL)"}, {"measurement": "Tebipenem MIC alone (T)", "setting": "ECL1098 Enterobacter cloacae TEM-OSBL(2b), DHA-1, ACT-16, NDM-1", "result": "Z (MIC of greater than 10 μg/mL)"}, {"measurement": "Tebipenem MIC alone (T)", "setting": "KP1054 Klebsiella pneumoniae VIM-1, SHV-11", "result": "Z (MIC of greater than 10 μg/mL)"}, {"measurement": "Tebipenem MIC alone (T)", "setting": "KP1059 Klebsiella pneumoniae VIM-1, SHV-11", "result": "Z (MIC of greater than 10 μg/mL)"}, {"measurement": "Tebipenem MIC alone (T)", "setting": "KP1061 Klebsiella pneumoniae KPC-3, TEM-1, SHV-11", "result": "Z (MIC of greater than 10 μg/mL)"}, {"measurement": "Tebipenem MIC alone (T)", "setting": "KP1064 Klebsiella pneumoniae KPC-2, TEM-1, SHV-11", "result": "Z (MIC of greater than 10 μg/mL)"}, {"measurement": "Tebipenem MIC alone (T)", "setting": "KP1065 Klebsiella pneumoniae VIM-1, SHV-11", "result": "Y (MIC of 1 μg/mL to 10 μg/mL)"}, {"measurement": "Tebipenem MIC alone (T)", "setting": "KP1070 Klebsiella pneumoniae KPC-2, SHV-11, TEM-1", "result": "Z (MIC of greater than 10 μg/mL)"}, {"measurement": "Tebipenem MIC alone (T)", "setting": "KP1074 Klebsiella pneumoniae KPC-3, SHV-11, TEM", "result": "Z (MIC of greater than 10 μg/mL)"}, {"measurement": "Tebipenem MIC alone (T)", "setting": "KP1081 Klebsiella pneumoniae NDM-1, TEM-1, SHV-11, CMY-6, CTX-M-15", "result": "Z (MIC of greater than 10 μg/mL)"}, {"measurement": "Tebipenem MIC alone (T)", "setting": "KP1158 Klebsiella pneumoniae KPC-2, VIM-1", "result": "Z (MIC of greater than 10 μg/mL)"}, {"measurement": "Tebipenem MIC alone (T)", "setting": "KP1159 Klebsiella pneumoniae SHV-1(2b), CTX-M-15, IMP-4", "result": "Y (MIC of 1 μg/mL to 10 μg/mL)"}, {"measurement": "Tebipenem MIC alone (T)", "setting": "KP1160 Klebsiella pneumoniae SHV-28(2be), CTX-M-15, IMP-26", "result": "Y (MIC of 1 μg/mL to 10 μg/mL)"}, {"measurement": "Tebipenem MIC alone (T)", "setting": "KP1161 Klebsiella pneumoniae NDM-1", "result": "Z (MIC of greater than 10 μg/mL)"}, {"measurement": "Tebipenem MIC alone (T)", "setting": "KP1162 Klebsiella pneumoniae SHV-1(2b), CTX-M-15, IMP-4", "result": "Z (MIC of greater than 10 μg/mL)"}, {"measurement": "Tebipenem MIC alone (T)", "setting": "KP1163 Klebsiella pneumoniae SHV-11(2b), MOX-1, KPC-2, VIM-1", "result": "Z (MIC of greater than 10 μg/mL)"}, {"measurement": "Tebipenem MIC alone (T)", "setting": "KP1164 Klebsiella pneumoniae SHV-12(2be), VIM-1", "result": "Z (MIC of greater than 10 μg/mL)"}, {"measurement": "Tebipenem MIC alone (T)", "setting": "KP1165 Klebsiella pneumoniae SHV-11(2b), CTX-M-15, VIM-27", "result": "Z (MIC of greater than 10 μg/mL)"}, {"measurement": "Tebipenem MIC alone (T)", "setting": "KP1166 Klebsiella pneumoniae SHV-5(2be), VIM-26", "result": "Z (MIC of greater than 10 μg/mL)"}, {"measurement": "Tebipenem MIC alone (T)", "setting": "KP1168 Klebsiella pneumoniae SHV-11(2b), CTX-M-15, VIM-27", "result": "Z (MIC of greater than 10 μg/mL)"}, {"measurement": "Tebipenem MIC alone (T)", "setting": "KP1169 Klebsiella pneumoniae SHV-11(2b), VIM-1", "result": "Y (MIC of 1 μg/mL to 10 μg/mL)"}, {"measurement": "Tebipenem MIC alone (T)", "setting": "KP1170 Klebsiella pneumoniae SHV-11(2b), CTX-M-15, NDM-1", "result": "Z (MIC of greater than 10 μg/mL)"}, {"measurement": "Tebipenem MIC alone (T)", "setting": "KP1172 Klebsiella pneumoniae SHV-31(2be), DHA-1, VIM-1", "result": "Y (MIC of 1 μg/mL to 10 μg/mL)"}, {"measurement": "Tebipenem MIC alone (T)", "setting": "KP1173 Klebsiella pneumoniae TEM-33(2br), CTX-M-15, IMP-1", "result": "Y (MIC of 1 μg/mL to 10 μg/mL)"}, {"measurement": "Tebipenem MIC alone (T)", "setting": "KP1174 Klebsiella pneumoniae CTX-M-14, IMP-1", "result": "Y (MIC of 1 μg/mL to 10 μg/mL)"}, {"measurement": "Tebipenem MIC alone (T)", "setting": "KP1175 Klebsiella pneumoniae SHV-OSBL(2b), VIM-1", "result": "Z (MIC of greater than 10 μg/mL)"}, {"measurement": "Tebipenem MIC alone (T)", "setting": "KP1176 Klebsiella pneumoniae SHV-12(2be), TEM-OSBL(2b), CMY-13, KPC-2, VIM-1", "result": "Z (MIC of greater than 10 μg/mL)"}, {"measurement": "Tebipenem MIC alone (T)", "setting": "KP1177 Klebsiella pneumoniae SHV-OSBL(2b), TEM-OSBL(2b), CTX-M-15, NDM-1", "result": "Z (MIC of greater than 10 μg/mL)"}, {"measurement": "Tebipenem MIC alone (T)", "setting": "KP1178 Klebsiella pneumoniae SHV-OSBL(2b), TEM-OSBL(2b), CTX-M-15, NDM-1", "result": "Z (MIC of greater than 10 μg/mL)"}, {"measurement": "Tebipenem MIC alone (T)", "setting": "KP1179 Klebsiella pneumoniae SHV-12(2be), TEM-OSBL(2b), CTX-M-15, NDM-7", "result": "Z (MIC of greater than 10 μg/mL)"}, {"measurement": "Tebipenem MIC alone (T)", "setting": "KP1180 Klebsiella pneumoniae SHV-OSBL(2b), TEM-OSBL(2b), CTX-M-15, DHA-1, IMP-26", "result": "Y (MIC of 1 μg/mL to 10 μg/mL)"}, {"measurement": "Tebipenem MIC alone (T)", "setting": "KP1181 Klebsiella pneumoniae SHV-OSBL(2b), CTX-M-15, IMP-26", "result": "Y (MIC of 1 μg/mL to 10 μg/mL)"}]}]}
